This note sets out measurements from US8299074B2, “P38 MAP kinase inhibitors” (RespiVert Ltd., priority 2008, dated 2012).

Structures are written as SMILES. Like-named read-outs stand apart in the source and are kept apart here. Some results are limits rather than exact numbers.

The subject of one data set is THP-1 cells. As to the kind of experiment: LPS-induced TNF alpha release in THP-1 cells. It counts as cell-based. The conditions noted are these: Homo sapiens. As for the experimental part:
LPS-Induced TNF Alpha Release in THP-1 Cells: Potency […] Coli; O111:B4, Sigma) for 4 hr and the supernatant collected for determination of TNFα concentration by sandwich ELISA (Duo-set, R&D systems). The inhibition of TNFα production was calculated at each concentration by comparison with vehicle control.

Data set [1] relates to Differentiated U937 cells. As to the kind of experiment: MTT assay (cell viability). The data set is classed as cell-based, human. The protocol:
MTT Assay Differentiated U937 cells were pre-incubated with compound for 4 hrs in 5% FCS or 10% FCS for 24 hrs. […] After 1 hr incubation, the media were removed, 200 ul of DMSO added to each well and the plates were shaken lightly for 1 h prior to reading the absorbance at 550 nm. The percentage loss of cell viability was calculated for each well relative to vehicle (0.5% DMSO)-treatment. Consequently an apparent increase in cell viability for drug treatment relative to vehicle is tabulated as a negative percentage.

For the next data set, the system named is BEAS2B cells. As to the kind of experiment: Poly I:C-induced ICAM-1 induction in BEAS2B cells. It counts as cell-based. As to conditions: Homo sapiens, BEAS-2B, read-out: BEAS2B (polyIC) ICAM1 IC50. The protocol:
Poly I:C-Induced ICAM-1 Induction in BEAS2B Cells: Potency Poly I:C (1 ug/ml) (Invivogen Ltd., San Diego, Calif.) was transfected into BEAS2B cells (human bronchial epithelial cells, ATCC) with Oligofectamine (Invitrogen, Carlsbad, Calif.). Cells were pre-incubated with final concentrations of compound for 2 hrs. The level of ICAM1 expression on the cell surface was determined by cell-based ELISA. Briefly, at 18 hrs after poly I:C transfection, cells were fixed with 4% formaldehyde in PBS. After quenching endogenous peroxidase by adding 0.1% sodium azide and 1% hydrogen peroxide, cells were washed with wash-buffer (0.1% Tween in PBS: PBS-Tween). After blocking the wells with 5% milk in PBS-Tween for 1 hr, the cells were incubated with anti-human ICAM-1 antibody (Cell Signaling Technology, Danvers, Mass.) in 1% BSA PBS overnight at 4° C. Cells were washed with PBS-Tween and incubated with the secondary antibody (HRP-conjugated anti-rabbit IgG, Dako Ltd., Glostrup, Denmark). The ICAM-1 signal was detected by adding substrate and reading at 450 nm with a reference wavelength of 655 nm using a spectrophotometer. […] The measured OD 450-655 readings were corrected for cell number by dividing with the OD595 reading in each well.

Data set [2] concerns U937 cells. As to the kind of experiment: LPS-induced IL-8 release in U937 cells. The conditions noted are these: Homo sapiens, read-out: DU937 (LPS) IL-8 IC50. The data set is classed as cell-based. As for the experimental part:
(§1) LPS-Induced TNF Alpha/IL-8 Release in U937 Cells: Potency U937 cells, human monocytic cell line, were differentiated to macrophage-type cells by incubation with phorbol myristate acetate (PMA; 100 ng/ml) for 48 to 72 hours. Cells were pre-incubated with final concentrations of compound for 2 hrs. […] Coli: O111:B4, Sigma) for 4 hrs, and the supernatant collected for determination of TNFα and IL-8 concentration by sandwich ELISA (Duo-set, R&D systems). […] The inhibition of IL-8 production was calculated at each concentration of test compound by comparison with vehicle control.

The test system of data set [3] is U937 cells. The data set is described as follows: LPS-induced TNF alpha release in U937 cells. The data set is classed as cell-based. The protocol:
as §1

A further data set concerns the target T1, p38 MAPK alpha (MAPK14) (Homo sapiens, UniProt Q16539).
T1 construct: purchased Invitrogen
The data set is described as follows: Enzyme inhibition assay, p38 MAPK alpha (FRET, Z-LYTE, via MAPKAP-K2). The conditions noted are these: read-out: Enzyme p38α IC50. The data set is classed as biochemical.

Setting [4] is: THP-1, Table 2, read-out: THP-1 (LPS) TNFα IC50.
Where [5] appears, read: Table 2, loss of cell viability at 1 μg/ml.
Setting [6] is: Homo sapiens; read-out: DU937 (LPS) TNFα REC50.
Where [7] appears, read: Table 2, loss of cell viability, test conducted at 10 μg/ml.
Setting [8] is: THP-1, read-out: THP-1 (LPS) TNFα IC50.
The mark [9] stands for this setting: Homo sapiens, read-out: DU937 (LPS) TNFα REC50.
Setting [10] is: Table 3, first MTT column, loss of cell viability at 1 μg/ml.
Where [11] appears, read: Table 3, second MTT column, loss of cell viability at 1 μg/ml.
Setting [12] is: THP-1, Table 3, read-out: THP-1 (LPS) TNFα IC50.

T1 sequence (Q16539 whole entry): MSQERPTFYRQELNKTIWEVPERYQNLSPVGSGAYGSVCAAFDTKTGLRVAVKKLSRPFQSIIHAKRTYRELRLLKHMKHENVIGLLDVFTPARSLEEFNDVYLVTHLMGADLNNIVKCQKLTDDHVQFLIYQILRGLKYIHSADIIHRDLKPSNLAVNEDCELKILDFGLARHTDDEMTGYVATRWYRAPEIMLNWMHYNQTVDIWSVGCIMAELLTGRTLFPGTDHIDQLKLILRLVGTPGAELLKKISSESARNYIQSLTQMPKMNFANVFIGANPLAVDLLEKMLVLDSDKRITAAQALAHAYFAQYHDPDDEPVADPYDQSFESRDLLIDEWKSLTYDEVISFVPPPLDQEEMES

In general, IC50 refers to the concentration at which inhibition is half-maximal. For the molecule `[2H]c1c([2H])c(C([2H])([2H])[2H])c([2H])c([2H])c1-n1nc(C(C)(C)C)cc1NC(=O)Nc1ccc(Oc2ccnc(NC(=O)COC)c2)c2ccccc12` [Example 10, N-(4-(4-(3-(3-tert-butyl-1-(2,3,5,6-tetradeutero-4-(trideuteromethyl)phenyl)-1H-pyrazol-5-yl)ureido)naphthalen-1-yloxy)pyridin-2-yl)-2-methoxyacetamide], the IC50 in the data set on THP-1 cells (setting [4]), in the data set with BEAS2B cells (Table 2) and with U937 cells [2] (Table 2) was less than 10 nM throughout. The “DU937 (cell viability) MTT assay 4 h” value in data set [1] (setting [5]) is “− (<=30%)”. For the same molecule, the “DU937 (cell viability) MTT assay 24 h” value in data set [1] (setting [5]) is recorded as “+ (>30%)”. Further, the EC50 in the data set with U937 cells [3] (setting [6]) was less than 10 nM.
Turning to `COCCC(=O)Nc1cc(Oc2ccc(NC(=O)Nc3cc(C(C)(C)C)nn3-c3ccc(C)cc3)c3ccccc23)ccn1` [Example 4, N-(4-(4-(3-(3-tert-Butyl-1-p-tolyl-1H-pyrazol-5-yl)ureido)naphthalen-1-yloxy)pyridin-2-yl)-3-methoxypropanamide], the IC50 in the data set on THP-1 cells (setting [4]), in the data set with BEAS2B cells (Table 2) and with U937 cells [2] (Table 2) was less than 10 nM in each case. In addition, the “DU937 (cell viability) MTT assay 4 h” value in data set [1] (setting [7]) was “−^$ (<=30%)”. Besides, in data set [1] (setting [7]), the “DU937 (cell viability) MTT assay 24 h” value is “+^$ (>30%)”. Besides, the EC50 in the data set on U937 cells [3] (setting [6]) was less than 10 nM.
Consider `Cc1ccc(-n2nc(C(C)(C)C)cc2NC(=O)Nc2ccc(Oc3ccnc(NC(=O)C4CCOCC4)c3)c3ccccc23)cc1` [Example 2, N-(4-(4-(3-(3-tert-Butyl-1-p-tolyl-1H-pyrazol-5-yl)ureido)naphthalen-1-yloxy)pyridin-2-yl)tetrahydro-2H-pyran-4-carboxamide], for which the IC50 with THP-1 cells (setting [4]), with BEAS2B cells (Table 2) and in the data set on U937 cells [2] (Table 2) was less than 10 nM throughout. Moreover, the “DU937 (cell viability) MTT assay 4 h” value in data set [1] (setting [7]) is “−^$ (<=30%)”. Further, the “DU937 (cell viability) MTT assay 24 h” value in data set [1] (setting [7]) is given as “+^$ (>30%)”. In addition, the EC50 in the data set on U937 cells [3] (setting [6]) was less than 5000 nM.
Turning to `Cc1ccc(-n2nc(C(C)(C)C)cc2NC(=O)Nc2ccc(Oc3ccnc(NC(=O)NC4CC4)n3)c3ccccc23)cc1` [Example 69, 1-Cyclopropyl-3-(4-(4-(3-(3-tert-butyl-1-p-tolyl-1H-pyrazol-5-yl)ureido)naphthalen-1-yloxy)pyrimidin-2-yl)urea], the IC50 is less than 5000 nM with THP-1 cells (THP-1, Table 1, read-out: THP-1 (LPS) TNFα IC50); less than 10 nM on p38 MAPK alpha (MAPK14) (Table 1); less than 10 nM with U937 cells [2] (Table 1). Moreover, the “DU937 (cell viability) MTT assay 4 h” value in data set [1] (Table 1, MTT, loss of cell viability at 1 μg/ml) is “− (<=30%)”; in data set [1] (Table 1, first MTT column, loss of cell viability at 1 μg/ml), “− (<=30%)”. In the data set on U937 cells [3] (setting [6]), the EC50 was less than 10 nM.
In the case of `COCCOCC(=O)Nc1cc(Oc2ccc(NC(=O)Nc3cc(C(C)(C)C)nn3-c3ccc(C)cc3)c3ccccc23)ccn1` [Example 1, N-(4-(4-(3-(3-tert-Butyl-1-p-tolyl-1H-pyrazol-5-yl)ureido)naphthalen-1-yloxy)pyridin-2-yl)-2-(2-methoxyethoxy)acetamide], the figures for the IC50 in the data set on THP-1 cells (setting [8]), with BEAS2B cells and in the data set on U937 cells [2] were less than 10 nM, less than 5000 nM and less than 5000 nM, respectively. In data set [1] (setting [7]), the “DU937 (cell viability) MTT assay 4 h” value is on record as “−^$ (<=30%)”. Moreover, in data set [1] (setting [7]), the “DU937 (cell viability) MTT assay 24 h” value is recorded as “+^$ (>30%)”. Besides, in the data set on U937 cells [3] (setting [9]), the EC50 was less than 10 nM.
As to `COCCOCC(=O)N1CCC(NC(=O)Nc2cc(Oc3ccc(NC(=O)Nc4cc(C(C)(C)C)nn4-c4ccc(C)cc4)c4ccccc34)ccn2)CC1` [Example 40, 2-(2-Methoxyethoxy)-1-(4-(3-(4-(4-(3-(3-tert-butyl-1-p-tolyl-1H-pyrazol-5-yl)ureido)naphthalen-1-yloxy)pyridin-2-yl)ureido)piperidin-1-yl)ethanone], the IC50 in the data set with THP-1 cells (setting [8]), with BEAS2B cells and in the data set with U937 cells [2] was less than 10 nM each time. In addition, the “DU937 (cell viability) MTT assay 4 h” value in data set [1] (setting [10]) is recorded as “− (<=30%)”; in data set [1] (setting [11]), “+ (>30%)”. Further, in the data set with U937 cells [3] (setting [9]), the EC50 was less than 10 nM.
With `CSCC(=O)Nc1cc(Oc2ccc(NC(=O)Nc3cc(C(C)(C)C)nn3-c3ccc(C)cc3)c3ccccc23)ccn1` [Example 3, N-(4-(4-(3-(3-tert-Butyl-1-p-tolyl-1H-pyrazol-5-yl)ureido)naphthalen-1-yloxy)pyridin-2-yl)-2-(methylthio)acetamide], the half-inhibitory concentration (IC50) was less than 10 nM in the data set on THP-1 cells (setting [4]), less than 5000 nM in the data set with BEAS2B cells (Table 2) and less than 10 nM with U937 cells [2] (Table 2). In addition, the “DU937 (cell viability) MTT assay 4 h” value in data set [1] (setting [7]) is “−^$ (<=30%)”. The “DU937 (cell viability) MTT assay 24 h” value in data set [1] (setting [7]) was “+^$ (>30%)”. Further, the EC50 in the data set with U937 cells [3] (setting [6]) is less than 5000 nM.
As for `COCC(=O)Nc1cc(Oc2ccc(NC(=O)Nc3cc(C(C)(C)C)nn3-c3ccc(C)cc3)c(C)c2)ccn1` [Example 24, N-(4-(4-(3-(3-tert-Butyl-1-p-tolyl-1H-pyrazol-5-yl)ureido)-3-methylphenoxy)pyridin-2-yl)-2-methoxyacetamide], the values for the 50% inhibitory concentration (IC50) in the data set with THP-1 cells (setting [4]), on p38 MAPK alpha (MAPK14) (Table 2) and in the data set with U937 cells [2] (Table 2) were less than 10 nM, less than 5000 nM and less than 10 nM, respectively. Also, the “DU937 (cell viability) MTT assay 4 h” value in data set [1] (setting [5]) is on record as “− (<=30%)”. In data set [1] (setting [5]), the “DU937 (cell viability) MTT assay 24 h” value is “+ (>30%)”. Further, the EC50 with U937 cells [3] (setting [6]) was less than 10 nM.
Take `Cc1ccc(-n2nc(C(C)(C)C)cc2NC(=O)Nc2ccc(Oc3ccnc(NC(=O)NC4CCN(S(C)(=O)=O)CC4)c3)c3ccccc23)cc1` [Example 41, N-Methylsulfonyl-4-(3-(4-(4-(3-(3-tert-butyl-1-p-tolyl-1H-pyrazol-5-yl)ureido)naphthalen-1-yloxy)pyridin-2-yl)ureido)piperidine]: the IC50 in the data set with THP-1 cells (setting [12]) is less than 10 nM; on p38 MAPK alpha (MAPK14) (Table 3), less than 10 nM; in the data set on U937 cells [2] (Table 3), less than 5000 nM. Also, the figures for the “DU937 (cell viability) MTT assay 4 h” value in data set [1] (setting [10]) and in data set [1] (setting [11]) were “− (<=30%)” and “+ (>30%)”, respectively. Also, the EC50 with U937 cells [3] (setting [6]) was less than 5000 nM.
For `COCC(=O)Nc1cc(Oc2ccc(NC(=O)Nc3cc(C(C)(C)C)nn3-c3ccc(C)cc3)c3ccccc23)ccn1` [Example 8, N-(4-(4-(3-(3-tert-Butyl-1-p-tolyl-1H-pyrazol-5-yl)ureido)naphthalen-1-yloxy)pyridin-2-yl)-2-methoxyacetamide], the IC50 in the data set on THP-1 cells (setting [4]) is less than 5000 nM; with BEAS2B cells (Table 2), less than 10 nM; in the data set on U937 cells [2] (Table 2), less than 10 nM. In data set [1] (setting [5]), the “DU937 (cell viability) MTT assay 4 h” value is reported as “− (<=30%)”. For the same molecule, in data set [1] (setting [5]), the “DU937 (cell viability) MTT assay 24 h” value is “+ (>30%)”. Moreover, the EC50 in the data set on U937 cells [3] (setting [6]) is less than 10 nM.
Consider `Cc1ccc(-n2nc(C(C)(C)C)cc2NC(=O)Nc2ccc(Oc3ccnc(NC(=O)NC4CC4)c3)c3ccccc23)cc1` [Example 33, 1-(4-((2-(3-Cyclopropylureido)pyridin-4-yl)oxy)naphthalen-1-yl)-3-(3-(tert-butyl)-1-(p-tolyl)-1H-pyrazol-5-yl)urea], for which the IC50 was less than 10 nM in the data set on THP-1 cells (setting [12]), less than 5000 nM at p38 MAPK alpha (MAPK14) (Table 3) and less than 5000 nM in the data set with BEAS2B cells (Table 3). For the same molecule, the “DU937 (cell viability) MTT assay 4 h” value in data set [1] (setting [10]) and in data set [1] (setting [11]) was “− (<=30%)” throughout. The EC50 in the data set on U937 cells [3] (setting [6]) was less than 10 nM.
